Experiments:
[1] = system: 22RV1 prostate cancer cells; test: Cholesterol levels in whole cells and mitochondria (LC-SIM); type: cell-based, human
Protocol: Example 3E: Whole cells and mitochondria are prepared/treated as follows. 22RV1 prostate cancer cells are cultured as described herein-above. The cells are harvested, treated with Lithium dodecyl sulfate (LDS) detergent, then a whole cell fraction and an isolated mitochondrial fraction provided by centrifugation and the pellets are processed to determine their cholesterol levels as follows: cholesterol is extracted with hexane/methanol mixture (7:1, v/v), into which an appropriate amount of stable isotope-labeled d7-cholesterol standard (Avanti Polar Lipids) is spiked. Samples are sonicated in a water-bath, vortexed, and centrifuged at 16,000×g for 5 min at RT. The upper layers are dried down in a SpeedVac at RT. Then samples are incubated with 200 μL 10 mg/mL 4-(dimethylamino)phenyl isocyanate (DMAPI) in dichloromethane and 30 μL triethylamine at 65° C. for 1.5 h in a ThermoMixer. The reaction is quenched by phosphate buffer (pH 8.0), followed by extraction of DMAPI-labeled cholesterol with hexane and vacuum concentration in a SpeedVac. The dry residues are reconstituted in acetonitrile/isopropanol (1:1) and analyzed by liquid chromatography-selected ion monitoring (LC-SIM) using an Ultimate 3000 XRS liquid chromatography system connected to an Orbitrap Fusion Lumos mass spectrometer (Thermo Scientific). Following separation on a 5-cm Hypersil GOLD C18 column, DMAPI-derivatized endogenous cholesterol (m/z 549.442) and d7-cholesterol (m/z 556.485) are analyzed by time-scheduled SIM analysis on an Orbitrap Fusion Lumos. The acquired LC-SIM data are analyzed by Skyline for cholesterol quantification.

[2] = system: H446 human small cell lung cancer (SCLC) cells; test: Mouse xenograft model, H446 SCLC; type: in vivo, mice; settings: 2.8 mg/kg, twice a week via i.p. injection, 52 days
Protocol: Example 10: THSD (ALSD and ELSD, respectively) are tested in vivo in a mouse xenograft model for human lung cancer. The example is essentially performed as described for example 9 with the following modifications: human SCLC H446 cancer cells are used, and the tested agents include two statin conjugates (compounds of formula FId/compound 14 or “DZ2b” and FIId/compound 7 or “DZ2a”, respectively, designated “DZ-SIM-Ester” or “DZ-SIM-Amide” in FIG. 10), and a non-statin conjugate (“DZ-DHA”). SCLC H446 cells (1.5×10^6) are subcutaneously implanted on the bilateral flanks of athymic nude mice at age of 5 weeks. 10 days post cell implantation, mice are treated with DZ1 (2.8 mg/kg), SIM (2 mg/kg), DZ1-SIM-Amide/compound 7 or DZ1-SIM-Ester/compound 14 (4 mg/kg), and DZ1-DHA (4 mg/kg, DZ1-dihydroartemisinin ester “DZ1-DHA”, as shown in FIG. 11), twice a week via i.p. injection. (A) Tumor sizes are measured by caliper every four days during the treatment period of 52 days, and volumes are calculated using formula […] as described in example 9 above. Confidence levels are indicated as *P<0.05, **P<0.01, ***P<0.0005.

## CCC(C)(C)C(=O)O[C@H]1C[C@@H](C)C=C2C=C[C@H](C)[C@H](CC[C@@H]3C[C@@H](O)CC(=O)O3)[C@H]21 [Simvastatin]
[1]; mitochondrial fraction
  Cholesterol, mitochondria: 56 nmol Cholesterol per 10^7 cells
  Cholesterol, mitochondria, relative to vehicle control (100%): 51%
[1]; mitochondrial fraction, listed as SIM
  Cholesterol, mitochondria, relative to vehicle control (100%): (51%)
[1]; whole cells
  Cholesterol, whole cells: 102 nmol Cholesterol per 10^6 cells
  Cholesterol, whole cells, relative to vehicle control (100%): 88%
[1]; whole cells, listed as SIM
  Cholesterol, whole cells, relative to vehicle control (100%): (88%)

## CC1(C)C(/C=C/C2=C(Cl)C(=C/C=C3/N(CCCCCC(=O)O)c4ccccc4C3(C)C)/CCC2)=[N+](CCCCS(=O)(=O)[O-])c2ccccc21 [DZ1]
[2]
  mean tumor volume / growth inhibition: steep increase in tumor volume

— patent publication US20230116399A1, “Tumor Homing Statin Derivatives” (Da Zen Theranostics, Inc., priority 2019, published 2023)
